Drawing on patent publication US10570129B2 (Zoetis Services LLC, priority 2015, dated 2020), this text covers minimal effective concentration for 23 compounds.

In experiment [1] the test system is D. immitis microfilariae. The experiment can be described thus: Dirofilaria immitis, microfilariae (DiMF) in vitro motility assay. It counts as cell-based. The conditions noted are these: Dirofilaria immitis, 72 h, read-out: DiMF minimally effective dose (MEC).
For experiment [2], the system named is Haemonchus contortus L3. As to the kind of experiment: microbe, parasite or virus in culture. The class given is cell-based. The conditions noted are these: Haemonchus contortus, 96 h, read-out: HcL3 Minimal Effective Concentration (MEC).

Each structure is given as a SMILES string.

As for `N#Cc1ccc2c(c1)c1c(n2C(=O)NCc2ccnc(F)c2)CCN(C/C=C/c2cc(Cl)c(F)c(Cl)c2)C1` [Example 112, (E)-8-cyano-2-(3-(3,5-dichloro-4-fluorophenyl)allyl)-N-((2-fluoropyridin-4-yl)methyl)-1,2,3,4-tetrahydro-5H-pyrido[4,3-b]indole-5-carboxamide], the minimal effective concentration in experiment [1] was > 100 µM; in experiment [2] it was 0.5 µM.
As to `O=C(NCc1ccnc(Cl)c1)n1c2c(c3ccc(Cl)cc31)CN(C/C=C/c1ccc(Cl)cc1)CC2` [Example 213, (E)-7-chloro-2-(3-(4-chlorophenyl)allyl)-N-((2-chloropyridin-4-yl)methyl)-1,2,3,4-tetrahydro-5H-pyrido[4,3-b]indole-5-carboxamide], the minimal effective concentration turned out to be 3.3 µM in experiment [1] and 0.3 µM in experiment [2].
The like results for `N#Cc1ccc2c(c1)c1c(n2C(=O)NCc2ccnc(F)c2)CCN(C/C=C/c2ccc(Cl)cc2F)C1` [Example 104, (E)-2-(3-(4-chloro-2-fluorophenyl)allyl)-8-cyano-N-((2-fluoropyridin-4-yl)methyl)-1,2,3,4-tetrahydro-5H-pyrido[4,3-b]indole-5-carboxamide] were, in that order, 3.2 µM and 0.1 µM.
The like results for `O=C(NCc1ccnc(F)c1)n1c2c(c3ccc(Cl)cc31)CN(C/C=C/c1ccc(Cl)c(F)c1)CC2` [Example 224, (E)-7-chloro-2-(3-(4-chloro-3-fluorophenyl)allyl)-N-((2-fluoropyridin-4-yl)methyl)-1,2,3,4-tetrahydro-5H-pyrido[4,3-b]indole-5-carboxamide] were, in that order, 3.3 µM and 1.8 µM.
The like results for `N#Cc1ccc2c3c(n(C(=O)NCc4ccnc(Cl)c4)c2c1)CCN(C/C=C/c1ccc(F)c(F)c1)C3` [Example 28, (E)-N-((2-chloropyridin-4-yl)methyl)-7-cyano-2-(3-(3,4-difluorophenyl)allyl)-1,2,3,4-tetrahydro-5H-pyrido[4,3-b]indole-5-carboxamide] were, in that order, 4.4 µM and 1.8 µM.
With `N#Cc1cc2c(cc1F)c1c(n2C(=O)NCc2ccnc(Cl)c2)CCN(C/C=C/c2ccc(F)cc2)C1` [Example 175, (E)-N-((2-chloropyridin-4-yl)methyl)-7-cyano-8-fluoro-2-(3-(4-fluorophenyl)allyl)-1,2,3,4-tetrahydro-5H-pyrido[4,3-b]indole-5-carboxamide], the values for the minimal effective concentration in experiment [1] and in experiment [2] were 10 µM and 1.8 µM, respectively.
The like results for `O=C(NCc1cnc(Cl)s1)n1c2c(c3cc(OC(F)(F)F)ccc31)CN(C/C=C/c1ccc(Cl)cc1)CC2` [Example 409, (E)-2-(3-(4-chlorophenyl)allyl)-N-((2-chlorothiazol-5-yl)methyl)-8-(trifluoromethoxy)-1,2,3,4-tetrahydro-5H-pyrido[4,3-b]indole-5-carboxamide] were, in that order, 10 µM and 1 µM.
For `O=C(NCc1ccnc(Cl)c1)n1c2c(c3cc(N4CCCSC4)ccc31)CN(C/C=C/c1ccc(Cl)c(Cl)c1)CC2` [Example 511, (E)-N-((2-chloropyridin-4-yl)methyl)-2-(3-(3,4-dichlorophenyl)allyl)-8-(1,3-thiazinan-3-yl)-1,2,3,4-tetrahydro-5H-pyrido[4,3-b]indole-5-carboxamide] the same measures were > 100 µM and > 100 µM.
For `O=C(NCc1ccnc(Cl)c1)n1c2c(c3c(C(F)(F)F)cc(F)cc31)CN(C/C=C/c1ccc(F)cc1)CC2` [Example 324, (E)-N-((2-chloropyridin-4-yl)methyl)-7-fluoro-2-(3-(4-fluorophenyl)allyl)-9-(trifluoromethyl)-1,2,3,4-tetrahydro-5H-pyrido[4,3-b]indole-5-carboxamide] the same measures were 10 µM and 3.3 µM.
In the case of `N#Cc1ccc(/C=C/CN2CCc3c(c4cc(Cl)c(Cl)cc4n3C(=O)NCc3ccnc(Cl)c3)C2)cc1` [Example 279, (E)-7,8-dichloro-N-((2-chloropyridin-4-yl)methyl)-2-(3-(4-cyanophenyl)allyl)-1,2,3,4-tetrahydro-5H-pyrido[4,3-b]indole-5-carboxamide], the results for the minimal effective concentration in experiment [1] and in experiment [2] were > 100 µM and 1.8 µM, respectively.
For `O=C(NCc1ccnc(Cl)c1)n1c2c(c3cc(OC(F)(F)F)ccc31)CN(C/C=C/c1ccc(C(F)(F)F)cc1)CC2` [Example 396, (E)-N-((2-chloropyridin-4-yl)methyl)-8-(trifluoromethoxy)-2-(3-(4-(trifluoro-methyl)phenyl)allyl)-1,2,3,4-tetrahydro-5H-pyrido[4,3-b]indole-5-carboxamide] the same measures were 1 µM and 3.3 µM.
`N#Cc1ccc2c(c1)c1c(n2C(=O)NCc2ccnc(O)c2)CCN(C/C=C/c2cc(Cl)c(F)c(Cl)c2)C1` [Example 452, (E)-8-cyano-2-(3-(3,5-dichloro-4-fluorophenyl)allyl)-N-((2-hydroxypyridin-4-yl)methyl)-1,2,3,4-tetrahydro-5H-pyrido[4,3-b]indole-5-carboxamide]: the minimal effective concentration in experiment [1] and in experiment [2] was > 100 µM in each case.
For the compound `O=C(NCc1ccnc(Cl)c1)n1c2c(c3cc(Cl)ccc31)CN(C/C=C/c1ccc(OC(F)(F)F)cc1)CC2` [Example 245, (E)-8-chloro-N-((2-chloropyridin-4-yl)methyl)-2-(3-(4-(trifluoromethoxy)-phenyl)allyl)-1,2,3,4-tetrahydro-5H-pyrido[4,3-b]indole-5-carboxamide], the values for the minimal effective concentration in experiment [1] and in experiment [2] were 11.9 µM and 3.3 µM, respectively.
The like results for `N#Cc1ccc2c(c1)c1c(n2C(=O)NCc2ccnc(O)c2)CCN(C/C=C/c2ccc(Cl)c(Cl)c2)C1` [Example 449, (E)-8-cyano-2-(3-(3,4-dichlorophenyl)allyl)-N-((2-hydroxypyridin-4-yl)methyl)-1,2,3,4-tetrahydro-5H-pyrido[4,3-b]indole-5-carboxamide] were, in that order, > 100 µM and > 100 µM.
The like results for `O=C(NCc1ccnc(Cl)c1)n1c2c(c3cc(Br)ccc31)CN(C/C=C/c1ccc(OC(F)(F)F)cc1)CC2` [Example 187, (E)-8-bromo-N-((2-chloropyridin-4-yl)methyl)-2-(3-(4-(trifluoromethoxy)phenyl)allyl)-1,2,3,4-tetrahydro-5H-pyrido[4,3-b]indole-5-carboxamide] were, in that order, > 100 µM and 1.3 µM.
For `O=C(NCc1ccnc(Cl)c1)n1c2c(c3c(F)cc(C(F)(F)F)cc31)CN(C/C=C/c1ccc(Cl)cc1)CC2` [Example 323, (E)-2-(3-(4-chlorophenyl)allyl)-N-((2-chloropyridin-4-yl)methyl)-9-fluoro-7-(trifluoromethyl)-1,2,3,4-tetrahydro-5H-pyrido[4,3-b]indole-5-carboxamide] the same measures were 7.6 µM and > 100 µM.
On to `O=C(NCc1ccnc(F)c1)n1c2c(c3c(F)cc(C(F)(F)F)cc31)CN(C/C=C/c1ccc(Cl)cc1)CC2` [Example 327, (E)-2-(3-(4-chlorophenyl)allyl)-9-fluoro-N-((2-fluoropyridin-4-yl)methyl)-7-(trifluoromethyl)-1,2,3,4-tetrahydro-5H-pyrido[4,3-b]indole-5-carboxamide], for which the minimal effective concentration was 10 µM in experiment [1] and > 100 µM in experiment [2].
For `O=C(NCc1ccnc(F)c1)n1c2c(c3cc(Br)ccc31)CN(C/C=C/c1ccc(Cl)c(F)c1)CC2` [Example 188, (E)-8-bromo-2-(3-(4-chloro-3-fluorophenyl)allyl)-N-((2-fluoropyridin-4-yl)methyl)-1,2,3,4-tetrahydro-5H-pyrido[4,3-b]indole-5-carboxamide] the same measures were 3.3 µM and 0.3 µM.
In the case of `O=C(NCc1ccnc(Cl)c1)n1c2c(c3cc(-n4ccccc4=O)ccc31)CN(C/C=C/c1ccc(Cl)cc1)CC2` [Example 500, (E)-2-(3-(4-chlorophenyl)allyl)-N-((2-chloropyridin-4-yl)methyl)-8-(2-oxopyridin-1 (2H)-yl)-1,2,3,4-tetrahydro-5H-pyrido[4,3-b]indole-5-carboxamide], the figures for the minimal effective concentration in experiment [1] and in experiment [2] were 5.7 µM and > 100 µM, respectively.
As for `N#Cc1ccc2c(c1)c1c(n2C(=O)NCc2ccnc(Cl)c2)CCN(C/C=C/c2cc(F)c(Cl)c(F)c2)C1` [Example 71, (E)-2-(3-(4-chloro-3,5-difluorophenyl)allyl)-N-((2-chloropyridin-4-yl)methyl)-8-cyano-1,2,3,4-tetrahydro-5H-pyrido[4,3-b]indole-5-carboxamide], the minimal effective concentration was > 100 µM in experiment [1] and 0.2 µM in experiment [2].
The like results for `O=C(NCc1ccnc(F)c1)n1c2c(c3cc(Br)ccc31)CN(C/C=C/c1ccc(F)c(F)c1)CC2` [Example 191, (E)-8-bromo-2-(3-(3,4-difluorophenyl)allyl)-N-((2-fluoropyridin-4-yl)methyl)-1,2,3,4-tetrahydro-5H-pyrido[4,3-b]indole-5-carboxamide] were, in that order, 10 µM and 0.3 µM.
The like results for `O=C(NCc1ccnc(Cl)c1)n1c2c(c3c(OC(F)(F)F)cccc31)CN(C/C=C/c1ccc(OC(F)(F)F)cc1)CC2` [Example 361, (E)-N-((2-chloropyridin-4-yl)methyl)-9-(trifluoromethoxy)-2-(3-(4-(trifluoro-methoxy)phenyl)allyl)-1,2,3,4-tetrahydro-5H-pyrido[4,3-b]indole-5-carboxamide] were, in that order, 57.4 µM and > 100 µM.
As to `O=C(NCc1ccnc(Cl)c1)n1c2c(c3cc(Br)c(Br)cc31)CN(C/C=C/c1ccc(Cl)cc1)CC2` [Example 198, (E)-7,8-dibromo-2-(3-(4-chlorophenyl)allyl)-N-((2-chloropyridin-4-yl)methyl)-1,2,3,4-tetrahydro-5H-pyrido[4,3-b]indole-5-carboxamide], the values for the minimal effective concentration in experiment [1] and in experiment [2] were 5.7 µM and 1 µM, respectively.
